Patent US20080153792A1, “Drug Identification and Treatment Method” (priority 2006, published 2008)

Assays:
[1] = tested on: C57/BL6 mice, LPS-induced acute lung inflammation; assay: LPS-induced lung injury, BAL and lung MPO, Example 11; type: in vivo, mouse; settings: 40 mg/Kg orally; 48 h after LPS
[2] = tested on: 8 week old db/db diabetic mice; assay: hyperinsulinemic-euglycemic clamp in db/db mice; type: in vivo, mouse
Protocol: Glucose lowering in 8 week old db/db diabetic mice. The hyperinsulinemic-euglycemic clamp protocol was conducted to measure insulin sensitivity in vivo. In this procedure, insulin was administered to raise the insulin concentration while glucose was infused to maintain euglycemia or a fixed, normal blood glucose level (about 180 mg/dL). […] The objective of this protocol was to investigate characterize the capacity of 17α-ethynylandrost-5-ene-3β,7β,17β-triol and androst-5-ene-3β,7β,16α,17β-tetrol to ameliorate systemic insulin resistance and improve whole body glucose disposal in the hyperinsulinemic-euglycemic clamp model. The degree of skeletal muscle and hepatic insulin sensitivity and tissue specific glucose uptake were also assessed. The animals were dosed daily by oral gavage for 14 days. On Day 10 of treatment catheters were implanted in the carotid artery and jugular vein. On the day of the clamp (day 14) the compound was administered at 7:30 am.
Body weight and glucose concentration were assessed on day 0, 7 and day 14 of treatment. On day 14 a euglycemic hyperinsulinemic clamp was performed. […] Plasma ^14C 2-deoxyglucose was assessed at 122, 125, 130, 135, 145 min. […]
Analysis was conducted as follows. Plasma samples were deproteinized with Ba(OH)2 (0.3 N) and ZnSO4 (0.3 N), dried and radioactivity was assessed on scintillation counter (Packard TRICARB 2900 TR, Meriden, Conn.). […] One supernatant was directly counted to determine radioactivity from both [14C] […] A second aliquot was treated with Ba(OH)2 and ZnSO4 to remove ^14C DGP and any tracer incorporated into glycogen and then counted to determine radioactivity from free [^14C]DG(2). [^14C]DGP was calculated as the difference between the two aliquots. […] Rg, an index of tissue specific glucose uptake was calculated as previously described (E. W. Kraegen et al., Am. J. Physiol., 248:E353-E362, 1985). Whole body glucose turnover was calculated as the ratio of the ^3H glucose infusion rate (dpm/kg/min) and arterial plasma glucose specific activity (dpm/mg). […]

female SJL mice, EAE = assay: experimental autoimmune encephalomyelitis (EAE), PLP-induced, Example 23; type: in vivo, mouse; settings: 0.1 mg q.d. po from clinical onset
MG-63 cells = assay: reversal of glucocorticoid effects in MG-63 osteosarcoma cells; type: cell-based, human; settings: 0.1 μM compound
androgen receptor = androgen receptor (Homo sapiens, UniProt P10275); assay: interaction with androgen receptor
Chain of androgen receptor (P10275 whole entry, species assumed): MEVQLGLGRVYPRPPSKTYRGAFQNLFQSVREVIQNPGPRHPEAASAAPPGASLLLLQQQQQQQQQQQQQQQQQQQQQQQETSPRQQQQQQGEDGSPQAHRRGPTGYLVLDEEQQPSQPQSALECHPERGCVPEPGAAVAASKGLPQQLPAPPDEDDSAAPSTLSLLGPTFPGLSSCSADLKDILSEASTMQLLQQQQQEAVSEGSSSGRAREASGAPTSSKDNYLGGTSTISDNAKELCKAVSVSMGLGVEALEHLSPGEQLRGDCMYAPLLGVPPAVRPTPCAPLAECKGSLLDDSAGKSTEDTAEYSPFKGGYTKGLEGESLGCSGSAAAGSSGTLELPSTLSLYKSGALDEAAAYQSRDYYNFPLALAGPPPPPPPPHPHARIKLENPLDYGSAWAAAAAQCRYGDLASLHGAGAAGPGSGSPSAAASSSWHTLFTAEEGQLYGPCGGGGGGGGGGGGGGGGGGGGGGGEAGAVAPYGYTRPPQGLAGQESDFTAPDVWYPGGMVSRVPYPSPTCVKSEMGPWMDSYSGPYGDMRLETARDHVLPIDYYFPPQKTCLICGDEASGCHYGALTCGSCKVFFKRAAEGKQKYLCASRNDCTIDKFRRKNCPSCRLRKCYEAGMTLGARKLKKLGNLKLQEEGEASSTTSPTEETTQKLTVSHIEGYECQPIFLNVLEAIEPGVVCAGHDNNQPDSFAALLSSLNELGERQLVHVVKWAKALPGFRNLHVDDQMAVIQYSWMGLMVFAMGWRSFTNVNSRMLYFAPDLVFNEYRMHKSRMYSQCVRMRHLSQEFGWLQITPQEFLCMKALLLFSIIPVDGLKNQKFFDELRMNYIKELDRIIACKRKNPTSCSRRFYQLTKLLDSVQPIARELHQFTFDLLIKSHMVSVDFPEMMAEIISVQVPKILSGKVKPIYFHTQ

[3] = tested on: estrogen receptor-s or estrogen receptor-s; assay: interaction with estrogen receptors
[4] = metabolic stability in liver microsomes: human
Protocol: (§1) The protocol was performed as follows. […] (2) Set up samples as follows. […] (4) The internal standard/acetonitrile solution.

[5] = metabolic stability in liver microsomes: mouse; settings: 10 min
Protocol: as §1

CaCo-2 cell monolayer = assay: drug absorption with CaCo-2 cells; type: in vitro ADME, human
Protocol: Measurement of drug absorption with CaCo-2 cells. This protocol was used to measure the influx of compounds across a CaCo-2 cell monolayer. […] This cell line is used to study the rate at which various compounds cross the cell monolayer. […] This can provide information about a compound's potential to be orally bioavailable.
In this protocol, the cells were maintained in medium at 37° C., using 100 μL per well of warm medium in a sterile 50 ml tube. The cells were grown on sterile 24-well plates with 600 μL of differentiation medium per well. The wells contained a transwell insert to allow two compartments per well. […]
After differentiation medium reached room temperature, about 20 mL was poured into a small beaker. […] Each well was measured by the probe by inserting the probe into the well without touching the cell monolayer; press the TEST button when the probe is close to the medium surface and the reading will go from 0000 to a number when the probe touches the surface; a reading >1000Ω was acceptable. […]
20 μL of the 3α,7β,16α,17β-tetrahydroxyandrost-5-ene internal standard was added to each tube and 1500 μL of methyl-t-butyl ether was added to each tube. […] The methyl-t-butyl ether was then evaporated under nitrogen and reconstituted in 120 μL acetonitrile/water (35:65) and analyzed by LCMS.

[6] = other protocols: degree of sulfation and glucuronidation
11β-HSD1 mRNA = assay: liver mRNA by RT-PCR in rats fed compound in chow: 11β-HSD1; type: in vivo, rat; settings: 0.45% wt/wt in chow for 6 days; control 100%
Excerpt: (§2) Rats were fed ad libum with a standard laboratory chow that contained 0.45% wt/wt of androst-5-ene-3β,7β,17β-triol for 6 days, followed by analysis of liver tissue on day 6 for levels of phosphoenolpyruvate carboxykinase (“PEPCK”) and 11β-hydroxysteroid dehydrogenase (“11β-HSD”) in the liver. Control animals were fed normal chow and livers were examined on day 6 for PEPCK and 11β-HSD levels by measurement of messenger RNAs (mRNAs) by RT-PCR. Both control and treated animals had free access to water. […] Levels of PPARα mRNA in these animals were not affected by feeding with androst-5-ene-3β,7β,17β-triol.

PEPCK mRNA = assay: liver mRNA by RT-PCR in rats fed compound in chow: PEPCK; type: in vivo, rat; settings: 0.45% wt/wt in chow for 6 days; control 100%
Excerpt: as §2

PPARα mRNA = assay: liver mRNA by RT-PCR in rats fed compound in chow: PPARα; type: in vivo, rat; settings: 0.45% wt/wt in chow for 6 days; control 100%
Excerpt: as §2

[7] = tested on: male Wistar rats, DNBS colitis; assay: DNBS induced distal colitis; type: in vivo, rat; settings: s.c. once a day for 6 days, 0.2 or 2.0 mg/animal/day; 25-30% decrease considered significant
Protocol: Treatment of gastrointestinal inflammation. The capacity of formula 1 compounds to limit or inhibit inflammation or symptoms of inflammation was shown using an animal model for inflammatory bowel disease. Groups of 3 male Wistar rats (180±20 grams) fasted for 24 hours before 2,4-dinitrobenzene sulfonic acid (DNBS) or saline challenge were used. Distal colitis was induced by intra-colonic instillation of 0.5 mL of an ethanolic solution of DNBS (30 mg in 0.5 mL of a 30% ethanol in saline solution) after which 2 mL of air was injected through the cannula to ensure that the solution remained in the colon. The volume used was 0.1 mL per injection of 2 and 20 mg/mL of compound such as androst-5-ene-3β,7β,17β-triol in a liquid formulation, which was administered by subcutaneous injection once a day for 6 days (0.2 mg/animal/day or 2.0 mg/animal/day). The formulation contained 100 mg/mL of compound in a non-aqueous suspension, e.g., 2% benzyl alcohol w/v, 0.1% Brij 96 w/v and equal volumes of PEG 300 and propylene glycol. Concentrations of 2 mg/mL and 20 mg/mL were obtained by diluting the […] with vehicle that lacked compound.
The first dose was given 30 minutes after DNBS challenge. […] The presence of diarrhea was recorded daily by examining the anal area. […] Before removal of the colon, signs of adhesion between the colon and other organs are recorded. […]

[8] = tested on: gerbils, cerebral ischemic stroke; assay: acute cerebral ischemic stroke by bilateral carotid occlusion; type: in vivo, gerbil; settings: stroke treated
Excerpt: Treatment of neuron loss associated with trauma and osteoporosis or bone loss conditions. Immune competence is a complex function that can be acutely impaired following trauma-induced elevations in endogenous glucocorticoid (GC) levels. The compound 5-androstene-3β,7β,17β-triol administered parenterally was used to preserve these immune function by exerting a trophic or anabolic activity. […] Thus, the measured food-searching latency period in each group was 6.9±0.9 seconds (sec) for sham, 46.9±13.6 sec for stroke alone and 14.8±4.8 sec for stroke treated with 5-androstene-3β,7β,17β-triol. Concomitantly, the stroke-induced loss in CA1 hippocampal neuron count was markedly abrogated by 5-androstene-3β,7β,17β-triol (sham=362,247±6,839; stroke=152,354±11,575; and stroke+5-androstene-3β,7β,17β-triol=207,854±47,334).

[9] = tested on: thermally-injured mice (20% total body surface area); assay: bone loss in thermally-injured mice; type: in vivo, mouse
Excerpt: In bone loss conditions, 5-androstene-3β,7β,17β-triol affected the principal bone structures, i.e., cortical and trabecular layers and the growth plate. […] We observed partial protection against loss of bone mineral content as measured by dual X-ray absorptiometry.

[10] = tested on: rats, trauma and hemorrhage; assay: rat model of hemorrhagic trauma, 40% loss of total blood volume; type: in vivo; settings: one s.c. injection 40 mg/kg one hour after initiation of hemorrhage; n=12
Protocol: The effect of treatment in a rat model of hemorrhagic trauma was examined. Twenty-four rats were subjected to 40% loss of total blood volume, consisting of catheterization and laparotomy (soft tissue injury) to mimic trauma and hemorrhage. One hour after onset of hemorrhage, the animals were resuscitated with crystalloid fluid and packed red blood cells (PRBCs). […] Twelve animals received subcutaneous methyl cellulose control injection at 100 μL/kg body weight.

[11] = tested on: rats hemorrhaged to mean arterial pressure of about 35-40 mmHg; assay: reduced blood pressure hemorrhagic trauma protocol; type: in vivo, rat; settings: one s.c. injection 40 mg/kg; n=7; untreated group 75%
Protocol: A reduced blood pressure hemorrhagic trauma protocol was also conducted as a second model of hemorrhagic trauma. In this protocol, 15 rats were hemorrhaged described above to a mean arterial pressure of about 35-40 mmHg and resuscitated one hour from onset of the hemorrhage with crystalloid and PRBCs. Seven […] subcutaneous injection of androst-5-ene-3β,7β,17β-triol in a methyl cellulose suspension at a concentration of 40 mg/kg body weight in 100 μL/kg body weight, one hour after initiation of hemorrhage, but before fluid resuscitation. Eight animals received subcutaneous methyl cellulose control injection at 100 μL/kg body weight. Two days after induction of hemorrhage, mortality in the untreated group (n=8) was 75%.

## C[C@]12CC[C@H]3[C@@H]([C@@H](O)C=C4C[C@@H](O)CC[C@@]43C)[C@@H]1C[C@@H](O)[C@@H]2O [androst-5-ene-3β,7β,16α,17β-tetrol]
[1]
  level of IL-6 in BAL compared to vehicle treated animals: reduced levels
  level of MPO compared to vehicle treated animals: reduced levels
  level of TNFα in BAL compared to vehicle treated animals: reduced levels
[2]; ^14C-2-deoxyglucose, p<0.05
  augmenting muscle glucose uptake in the gastrocnemius muscle: more effective
[2]; oral gavage 14 days, insulin 10 mU/kg/min
  glucose infusion rate compared to the vehicle control: increased the glucose infusion rate
Female SJL mice, EAE
  course of EAE compared to vehicle-treated mice: significantly improved course of EAE
MG-63 cells
  osteoprotegerin levels in the presence of 30 nM dexamethasone: normal osteoprotegerin levels
Androgen receptor
  interaction with androgen receptor: do not interact
[3]
  interaction with estrogen receptor-s or estrogen receptor-s: do not interact
[4]; 10 min
  parent remaining human microsomes: 100% (10 min)
[5]
  parent remaining mouse microsomes: 100% (10 min)
CaCo-2 cell monolayer
  permeability in the CaCo-2 cell line: not highly permeable
[6]
  degree of sulfation and degree of glucuronidation compared to diols: low

## C[C@]12CC[C@H]3[C@@H]([C@@H](O)C=C4C[C@@H](O)CC[C@@]43C)[C@@H]1CC[C@@H]2O [androst-5-ene-3β,7β,17β-triol]
11β-HSD1 mRNA
  11β-HSD1 mRNA: 45%
PEPCK mRNA
  PEPCK mRNA: 30%
PPARα mRNA
  PPARα mRNA: 105%
[7]
  decrease in net colon-to-body weight ratio: 15-20%
[8]; sham 6.9±0.9, stroke alone 46.9±13.6
  food-searching latency period: 14.8 ± 4.8 s
[8]; sham 362,247±6,839, stroke 152,354±11,575
  CA1 hippocampal neuron count: 207,854±47,334
[9]
  femur ash weight versus vehicle-treated burned mice: significantly (p<0.01) greater
  loss of cortical (femur) and trabecular/cancellous (tibia) bone mass and suppression of chondrocyte proliferation in growth plate: significantly (p<0.01) prevented
[10]
  survival rate three days after induction of hemorrhage: 100%
[11]
  mortality rate two days after induction of hemorrhage: 43%
[4]; 90 min
  parent remaining human microsomes: 86% (90 min)
[5]
  parent remaining mouse microsomes: 89% (10 min)
